{"source": "patent US6156789A", "about": "“Method for treating abnormal cell proliferation in the brain” (Rhone-Poulenc Rorer S.A., priority 1998, dated 2000)", "experiment": "Tissue distribution of Compound A in mice with mammary C/16 adenocarcinomas (first method: liver, heart, kidney, lung, spleen, tumor)", "type": "in vivo, C3H/HeN female mice", "design": "key to Percentage of Compound A (of dose) in Liver / Percentage of Compound A (of dose) in Heart / Percentage of Compound A (of dose) in Kidney / Percentage of Compound A (of dose) in Lung / Percentage of Compound A (of dose) in Spleen / Percentage of Compound A (of dose) in Tumor: --: not detected", "conditions": "for Kp at 0.5 h: 0.50 h", "method": "Mammary C/16 adenocarcinomas were implanted in C3H/HeN female mice. At least 7 days later, 4α,10β-diacetoxy-2α-benzoyloxy-5β,20-epoxy-1β-hydroxy-7β,8β-methylene-9-oxo-19-nor-11-taxen-13α-yl (2R,3S)-3-tert-butoxycarbonylamino-2-hydroxy-3-phenylpropionate (\"Compound A\") was administered to groups of female mice at doses of 9.5, 15.4, 24.8, 40 or 60.5 mg/kg by intravenous injection under 0.4 or 0.5 ml/injection over 15 seconds. The body weight and date of implantation were recorded for each mouse. Blood and tissue samples were taken 2, 5, 15, 30 and 45 minutes and 1, 4, 14, 24 and 48 hours, after administration. The plasma was separated from the blood samples at 4° C. and frozen immediately. The tissue and tumors were weighed and frozen immediately (-20° C.).\nThe plasma and tissue samples were then analyzed for the concentration of Compound A. The plasma was assayed by high pressure liquid chromatography with spectrophotometric detection. For the tissue, liver, heart, kidney, lung, spleen and tumor tissue, samples were assayed by a first method, while a second method was used for the brain tissue analyzed. In the first method, 0.2 g of tissue was combined with 2 ml of sodium phosphate buffer 0.1 M (pH:7) and homogenized. The homogenate was centrifuged and 0.5 ml of supernatant was injected into the chromatographic column. In the second method, 10 μl of standard solution was combined with 0.2 g of brain tissue. 2 ml of methanol/5% perchloric acid (50/50) were added and the mixture was homogenized. The homogenate was centrifuged and 100 μl of supernatant was injected into the chromatographic column.", "key": {"[1]": {"conditions": "0.033 h, 40 μg/kg [sic], mice with tumors, single mice, 40 mg/kg, 1.98 min"}, "[2]": {"conditions": "mouse, heart/plasma, iv, 40 mg/kg, mice with tumors, single mice, read-out: Tissue/Plasma Ratio, HEART"}, "[3]": {"conditions": "mouse, kidney/plasma, iv, 40 mg/kg, 40 μg/kg [sic], mice with tumors, single mice, read-out: Tissue/Plasma Ratio, KIDNEY"}}, "note": "Several values for one entry are separate records, joined by “and”; a condition that tells them apart may be missing. Equal entries are not always repeated. Where two headings read alike, the source gives them in different places.", "data": [{"smiles": "CC(=O)O[C@H]1C(=O)[C@]23C[C@H]2C[C@H]2OC[C@@]2(OC(C)=O)[C@H]3[C@H](OC(=O)c2ccccc2)[C@]2(O)C[C@H](OC(=O)[C@H](O)[C@@H](NC(=O)OC(C)(C)C)c3ccccc3)C(C)=C1C2(C)C", "note": "[Compound A, 4α,10β-diacetoxy-2α-benzoyloxy-5β,20-epoxy-1β-hydroxy-7β,8β-methylene-9-oxo-19-nor-11-taxen-13α-yl (2R,3S)-3-tert-butoxycarbonylamino-2-hydroxy-3-phenylpropionate]", "values": [{"measurement": "distribution in tissues sampled", "setting": "40 mg/kg i.v.", "value": "quickly distributed in all tissues sampled"}, {"measurement": "percentage (concentration) in sampled tissue over time", "setting": "40 mg/kg i.v., first few hours, except tumor and brain tissue", "value": "fell off rapidly over the first few hours following drug administration, except in the tumor and brain tissue"}, {"measurement": "uptake of the drug", "setting": "40 mg/kg i.v., mice with mammary carcinoma", "value": "fast uptake of the drug"}, {"measurement": "drug present at 0.033 h cleared in one hour", "setting": "40 mg/kg i.v., rapid phase, except tumor and brain tissue", "value": 70, "unit": "%"}, {"measurement": "Tissue/Plasma Ratio, KIDNEY", "setting": "[1]", "value": "1.25 and 1.20"}, {"measurement": "Tissue/Plasma Ratio, LIVER", "setting": "[1]", "value": 0.91}, {"measurement": "Tissue/Plasma Ratio, SPLEEN", "setting": "[1]", "value": "0.42 and 0.43 and 0.41"}, {"measurement": "Percentage of Compound A (of dose) in Heart", "setting": "0.033 h, 40 mg/kg", "value": 0.46, "unit": "%"}, {"measurement": "Percentage of Compound A (of dose) in Kidney", "setting": "0.033 h, 40 mg/kg", "value": 2.06, "unit": "%"}, {"measurement": "Percentage of Compound A (of dose) in Liver", "setting": "0.033 h, 40 mg/kg", "value": 9.73, "unit": "%"}, {"measurement": "Percentage of Compound A (of dose) in Lung", "setting": "0.033 h, 40 mg/kg", "value": 0.67, "unit": "%"}, {"measurement": "Percentage of Compound A (of dose) in Spleen", "setting": "0.033 h, 40 mg/kg", "value": 0.27, "unit": "%"}, {"measurement": "Percentage of Compound A (of dose) in Tumor", "setting": "0.033 h, 40 mg/kg", "value": 1.07, "unit": "%"}, {"measurement": "Percentage of Compound A (of dose) in tissues, Total", "setting": "0.033 h, 40 mg/kg", "value": 14.45, "unit": "%"}, {"measurement": "Tissue/Plasma Ratio, LUNG", "setting": "0.083 h, 40 μg/kg [sic], mice with tumors, single mice, 40 mg/kg, 4.98 min", "value": 0.69}, {"measurement": "Percentage of Compound A (of dose) in Heart", "setting": "1 h, 40 mg/kg", "value": 0.08, "unit": "%"}, {"measurement": "Percentage of Compound A (of dose) in Kidney", "setting": "1 h, 40 mg/kg", "value": 0.56, "unit": "%"}, {"measurement": "Percentage of Compound A (of dose) in Liver", "setting": "1 h, 40 mg/kg", "value": 2.10, "unit": "%"}, {"measurement": "Percentage of Compound A (of dose) in Lung", "setting": "1 h, 40 mg/kg", "value": 0.18, "unit": "%"}, {"measurement": "Percentage of Compound A (of dose) in Spleen", "setting": "1 h, 40 mg/kg", "value": 0.10, "unit": "%"}, {"measurement": "Percentage of Compound A (of dose) in Tumor", "setting": "1 h, 40 mg/kg", "value": 0.94, "unit": "%"}, {"measurement": "Percentage of Compound A (of dose) in tissues, Total", "setting": "1 h, 40 mg/kg", "value": 4.37, "unit": "%"}, {"measurement": "Percentage of Compound A (of dose) in Heart", "setting": "4 h, 40 mg/kg", "value": 0.03, "unit": "%"}, {"measurement": "Percentage of Compound A (of dose) in Kidney", "setting": "4 h, 40 mg/kg", "value": 0.23, "unit": "%"}, {"measurement": "Percentage of Compound A (of dose) in Liver", "setting": "4 h, 40 mg/kg", "value": 0.47, "unit": "%"}, {"measurement": "Percentage of Compound A (of dose) in Lung", "setting": "4 h, 40 mg/kg", "value": 0.08, "unit": "%"}, {"measurement": "Percentage of Compound A (of dose) in Spleen", "setting": "4 h, 40 mg/kg", "value": 0.05, "unit": "%"}, {"measurement": "Percentage of Compound A (of dose) in Tumor", "setting": "4 h, 40 mg/kg", "value": 0.37, "unit": "%"}, {"measurement": "Percentage of Compound A (of dose) in tissues, Total", "setting": "4 h, 40 mg/kg", "value": 1.62, "unit": "%"}, {"measurement": "Percentage of Compound A (of dose) in Heart", "setting": "24 h, 40 mg/kg", "value": "--"}, {"measurement": "Percentage of Compound A (of dose) in Kidney", "setting": "24 h, 40 mg/kg", "value": "--"}, {"measurement": "Percentage of Compound A (of dose) in Liver", "setting": "24 h, 40 mg/kg", "value": "--"}, {"measurement": "Percentage of Compound A (of dose) in Lung", "setting": "24 h, 40 mg/kg", "value": "--"}, {"measurement": "Percentage of Compound A (of dose) in Spleen", "setting": "24 h, 40 mg/kg", "value": "--"}, {"measurement": "Percentage of Compound A (of dose) in Tumor", "setting": "24 h, 40 mg/kg", "value": 0.09, "unit": "%"}, {"measurement": "Percentage of Compound A (of dose) in tissues, Total", "setting": "24 h, 40 mg/kg", "value": 0.42, "unit": "%"}, {"measurement": "Percentage of Compound A (of dose) in Heart", "setting": "48 h, 40 mg/kg", "value": "--"}, {"measurement": "Percentage of Compound A (of dose) in Kidney", "setting": "48 h, 40 mg/kg", "value": "--"}, {"measurement": "Percentage of Compound A (of dose) in Liver", "setting": "48 h, 40 mg/kg", "value": "--"}, {"measurement": "Percentage of Compound A (of dose) in Lung", "setting": "48 h, 40 mg/kg", "value": "--"}, {"measurement": "Percentage of Compound A (of dose) in Spleen", "setting": "48 h, 40 mg/kg", "value": "--"}, {"measurement": "Percentage of Compound A (of dose) in Tumor", "setting": "48 h, 40 mg/kg", "value": "--"}, {"measurement": "Percentage of Compound A (of dose) in tissues, Total", "setting": "48 h, 40 mg/kg", "value": 0.19, "unit": "%"}, {"measurement": "AUC 0-4 Hours, Heart", "setting": "dose = 40 mg/kg", "value": 24.8, "unit": "µg·h/g"}, {"measurement": "AUC 0-4 Hours, Kidney", "setting": "dose = 40 mg/kg", "value": 74.4, "unit": "µg·h/g"}, {"measurement": "AUC 0-4 Hours, Liver", "setting": "dose = 40 mg/kg", "value": 70.8, "unit": "µg·h/g"}, {"measurement": "AUC 0-4 Hours, Lung", "setting": "dose = 40 mg/kg", "value": 34.3, "unit": "µg·h/g"}, {"measurement": "AUC 0-4 Hours, Spleen", "setting": "dose = 40 mg/kg", "value": 34.6, "unit": "µg·h/g"}, {"measurement": "AUC 0-4 Hours, Tumor", "setting": "dose = 40 mg/kg", "value": 35.6, "unit": "µg·h/g"}, {"measurement": "AUC 0 to Infinity, Heart", "setting": "dose = 40 mg/kg", "value": 28, "unit": "µg·h/g"}, {"measurement": "AUC 0 to Infinity, Kidney", "setting": "dose = 40 mg/kg", "value": 121, "unit": "µg·h/g"}, {"measurement": "AUC 0 to Infinity, Liver", "setting": "dose = 40 mg/kg", "value": 93, "unit": "µg·h/g"}, {"measurement": "AUC 0 to Infinity, Lung", "setting": "dose = 40 mg/kg", "value": 52, "unit": "µg·h/g"}, {"measurement": "AUC 0 to Infinity, Spleen", "setting": "dose = 40 mg/kg", "value": 80, "unit": "µg·h/g"}, {"measurement": "AUC 0 to Infinity, Tumor", "setting": "dose = 40 mg/kg", "value": 107, "unit": "µg·h/g"}, {"measurement": "half-life", "setting": "mouse, heart, iv, 40 mg/kg, read-out: t 1/2, Heart (converted)", "value": 96, "unit": "min"}, {"measurement": "Tmax", "setting": "mouse, heart, iv, 40 mg/kg i.v., read-out: time of maximum concentration, heart", "value": 1.98, "unit": "min"}, {"measurement": "Kp at 0.033 h", "setting": "mouse, heart/plasma, iv, 40 mg/kg, 0.033 h, mice with tumors, single mice, read-out: Tissue/Plasma Ratio, HEART", "value": 0.45}, {"measurement": "Kp at 0.083 h", "setting": "mouse, heart/plasma, iv, 40 mg/kg, 0.083 h, mice with tumors, single mice, read-out: Tissue/Plasma Ratio, HEART", "value": 0.98}, {"measurement": "Kp at 0.25 h", "setting": "[2]", "value": 0.65}, {"measurement": "Kp at 0.5 h", "setting": "[2]", "value": 0.88}, {"measurement": "Kp at 0.75 h", "setting": "[2]", "value": 0.87}, {"measurement": "Kp at 1 h", "setting": "mouse, heart/plasma, iv, 40 mg/kg, 1 h, mice with tumors, single mice, read-out: Tissue/Plasma Ratio, HEART", "value": 0.77}, {"measurement": "half-life", "setting": "mouse, kidney, iv, 40 mg/kg, 40 mg/kg i.v., read-out: half-life of the distribution phase, kidney (converted)", "value": 3, "unit": "min"}, {"measurement": "half-life", "setting": "mouse, kidney, iv, 40 mg/kg, read-out: t 1/2, Kidney (converted)", "value": 162, "unit": "min"}, {"measurement": "Tmax", "setting": "mouse, kidney, iv, 40 mg/kg i.v., read-out: time of maximum concentration, kidney", "value": 1.98, "unit": "min"}, {"measurement": "Kp at 0.033 h", "setting": "mouse, kidney/plasma, iv, 40 mg/kg, 0.033 h, 40 μg/kg [sic], mice with tumors, single mice, read-out: Tissue/Plasma Ratio, KIDNEY", "value": 1.7}, {"measurement": "Kp at 0.083 h", "setting": "mouse, kidney/plasma, iv, 40 mg/kg, 0.083 h, 40 μg/kg [sic], mice with tumors, single mice, read-out: Tissue/Plasma Ratio, KIDNEY", "value": 2.4}, {"measurement": "Kp at 0.25 h", "setting": "[3]", "value": 1.35}, {"measurement": "Kp at 0.5 h", "setting": "[3]", "value": 1.88}, {"measurement": "Kp at 0.75 h", "setting": "[3]", "value": 2.44}]}]}
